Assay results published in patent US5304367A, “In vivo brain imaging agent and method for diagnosis of psychiatric disorders” (New York University, priority 1990, dated 1994).

System: β-adrenergic receptor
Assay: quantitative autoradiography of brain sections from suicides and controls ([125I]iodopindolol)
Format: binding, human
Experimental: Beta Receptor Autoradiography
Iodopindolol is a well characterized βAR antagonist with a very high affinity (<1 nM) and specificity (Barovsky, K. et al., supra). Receptor binding studies are performed according to techniques well known in the art (see, for example, Kuhar, M. J., supra; Rainbow, T. C. et al., 1982, 1984, supra). A preferred method is described herein, although it will be apparent to one of skill in the art that the disclosed method may be modified according to the tissue preparation and ligand used.
Slides holding tissue sections are incubated for about 70 min at approximately 25° C. with 0.15 nM ^125 I-iodopindolol (New England Nuclear, 2200 Ci/mmole) in 25 mM Tris buffer, pH 7.5, containing 150 mM NaCl. Nonspecific binding is determined in the presence of 1 μM propranolol (see Examples, below). Zinterol, a selective β2 blocker, or metoprolol, a selective β1 antagonist, are added to the incubation buffer at 0.1 μM to achieve selective labeling of the β1 and β2 receptor subtypes, respectively. The incubation is followed by three 20 min washes in the same ice cold buffer. Slides are then dipped in ice cold distilled water to remove buffer salts, dried on a 50° C. slide warmer and apposed to ^3 H-sensitive film (Amersham ^3 H-hyperfilm) for 48-96 hours. The film is coexposed to commercial iodine standards (available from Amersham, for example). Film is developed manually using standard developer and fixer such as those available from the Eastman-Kodak Company. Sections are stained with cresyl violet and structures identified from the stained sections with the assistance of atlases and neuroanatomical texts such as: Barr M. L., The Human Nervous System: An Anatomical Viewpoint. Harper and Row, New York (1974); Carpenter M. B., Human Neuroanatomy. Williams and Wilkins, Baltimore (1976); DeArmond S. J. et al., Structure of the Human Brain : A Photographic Atlas. Oxford University Press, New York (1974); Nieuwenhuys R. et al., The Human Central Nervous System, Springer-Verlag, New York (1981 ), which references are hereby incorporated by reference.
Autoradiograms are analyzed by computerized image analysis systems well-known in the art (for example, with the aid of an IBM-PC). The autoradiograms are placed on a light box and a video camera is used for image acquisition. […] Standard curves derived from the iodine standards are used to convert gray level readings into equivalents of fmol ^125 I-iodopindolol / mg tissue. Specific binding is calculated by subtracting nonspecific from total binding.
Fourteen suicide and 14 pair-matched control brains were collected over 3 years from the medical examiner's offices in New York City and Jaffa, ISRAEL. […] The results of the coroner's examination as well as the results of broad-spectrum toxicological tests performed by the forensic laboratory were made available within 8 weeks. Only drug-free and pathology-free brains were included. For each suicide brain, a control matched for sex and age group with a PMD under 48 hours was collected the same day or within a few days, so that the pairs are also matched for storage time. The brains from each pair were dissected or sectioned on the same day and receptors were labeled in the same experiment, by an experimenter blind to the identity of the samples.
For autoradiography, slices from frontal cortical and anterior basal ganglia levels were sectioned in a Bright Cryotome (a refrigerated whole-body microtome) at -15° C. Sections of 40 μm were thaw- mounted onto gelatin-coated glass slides and βARs were labeled with [^125 I]iodopindolol (Pazos et al., Brain Res. 358:324-328 (1982)); Rainbow et al., Proc. Natl. Acad. Sci. U.S.A., 81:1585-1589 (1984)). Receptors were labeled with 150 pM iodopindolol, with or without 10^-6 M propranolol to define non-specific binding. The autoradiograms were developed after 48 or 72 hours. […]

Q: `CC(C)NCC(O)COc1cccc2[nH]cc([125I])c12` (stereo not drawn) [^125 I-iodopindolol] was tested. Which nonspecific binding (FIG. 2, sagittal section, normal male, in the presence of propranolol) did it give?
A: low and uniform throughout the section

Q: What about the “[125I]iodopindolol bound” value (caudate, control, n=5) of the same molecule?
A: 13.2 ± 4.0 fm/mg tissue

Q: And the “[125I]iodopindolol bound” value (caudate, suicide, n=5)?
A: 15.4 ± 2.0 fm/mg tissue

Q: And the “[125I]iodopindolol bound” value (cingulate gyrus, control, n=8)?
A: 11.8 ± 3.3 fm/mg tissue

Q: And the “[125I]iodopindolol bound” value (cingulate gyrus, suicide, n=8, P < 0.04)?
A: 16.0 ± 2.7 fm/mg tissue

Q: What about the “[125I]iodopindolol bound” value (frontalis inferior, control, n=6) of the same molecule?
A: 14.2 ± 4.0 fm/mg tissue

Q: And the “[125I]iodopindolol bound” value (frontalis inferior, suicide, n=6)?
A: 17.2 ± 4.1 fm/mg tissue

Q: And the “[125I]iodopindolol bound” value (frontalis medius, control, n=8)?
A: 9.3 ± 4.0 fm/mg tissue

Q: And the “[125I]iodopindolol bound” value (frontalis medius, suicide, n=8)?
A: 16.7 ± 3.5 fm/mg tissue

Q: And the “[125I]iodopindolol bound” value (frontalis superior, control, n=9)?
A: 10.8 ± 2.6 fm/mg tissue

Q: And the “[125I]iodopindolol bound” value (frontalis superior, suicide, n=9, P < 0.03)?
A: 17.2 ± 2.9 fm/mg tissue

Q: And the “[125I]iodopindolol bound” value (putamen, control, n=5)?
A: 19.5 ± 1.1 fm/mg tissue

Q: And the “[125I]iodopindolol bound” value (putamen, suicide, n=5)?
A: 17.4 ± 2.5 fm/mg tissue

Q: And the “[125I]iodopindolol bound” value (white matter (cortical), control, n=9)?
A: 5.6 ± 1.8 fm/mg tissue

Q: And the “[125I]iodopindolol bound” value (white matter (cortical), suicide, n=9)?
A: 6.7 ± 0.7 fm/mg tissue
